In article PMC6100259, “Insights into Structure-Activity Relationships of 3-Arylhydrazonoindolin-2-One Derivatives for Their Multitarget Activity on β-Amyloid Aggregation and Neurotoxicity” (Molecules : A Journal of Synthetic Chemistry and Natural …, 2018):
Where two headings read alike, the source gives them in different places.

Tests used:
[1] = target: T1, Aβ40 peptide (Homo sapiens, UniProt P05067); experiment: Inhibition of Aβ40 aggregation, ThT fluorescence-based method; assay type: biochemical; settings: for inhibition at 100 µM: Aβ40, compound 100 µM, ThT fluorescence, read-out: % Inhibition @ 100 µM, Aβ antiaggregating activity; for Aβ aggregation inhibition, result in words: Aβ40, ThT assay; for fold less potent than compound 1 (Aβ40 aggregation): ratio of IC50s vs compound 1
T1 construct: we preferred using Aβ40 peptide
T1 sequence (P05067 672-711 limits assumed): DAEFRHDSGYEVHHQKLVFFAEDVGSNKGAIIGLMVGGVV
Experimental: In vitro inhibition of Aβ aggregation was assessed through a ThT fluorescence-based method, with the use of 2% 1,1,1,3,3,3-hexafluoroisopropanol (HFIP) as aggregation enhancer. In this medium-throughput assay, we preferred using Aβ40 peptide, being more manageable than Aβ42 and less prone to the formation of preaggregates. Samples of Aβ were co-incubated with test molecules in PBS at 100 µM concentration and the antiaggregating activities were measured after 2 h of incubation at 25 °C. For compounds showing >80% Aβ40 aggregation inhibition, IC50s were determined.
The spectrofluorimetric assays, measuring ThT fluorescence in the presence of Aβ, were done as previously described. Briefly, coincubation samples were prepared as described above (Section 2.2 and Section 2.3) in 96-well black, non-binding microplates (Greiner Bio-One GmbH, Frickenhausen, Germany). Fluorimetric reads were performed in a multiplate reader Infinite M1000 Pro (Tecan, Cernusco sul Naviglio, Italy). Each concentration point was run in triplicate. CD ellipticity measures were performed as detailed in ref. [20], following the increase of the negative band at 215 nm as indicative of β-sheet arrangement.

[2] = Lipophilicity by RP-HPLC (log k'w); assay type: physicochemical; settings: RP-HPLC C18, MeOH/10 mM ammonium formate buffer pH 4.5, extrapolated to 100% aqueous mobile phase, 25 °C
Experimental: To place on a more quantitative basis the above SAR trends, the lipophilicity of a number of isatin arylhydrazone derivatives was measured by an RP-HPLC method. The polycratic capacity factors (log k’w) were determined (details in the Experimental Section). Lipophilicity descriptors (i.e., 1-octanol–water partition coefficients) were also calculated (CLOGPs) using two computational tools (Bio-Loom software, v. 1.7 and ACDLabs software, release 10.0). The ACDLabs software was used also for calculating descriptors of polarizability and size, namely molar refractivity (CMR) and molar volume (MV). The experimental lipophilicity parameters (log k’w), along with CMR and MV, are reported in Table 6 for 18 compounds achieving finite IC50s (<100 µM) in the Aβ aggregation assay.
The lipophilicity parameters were determined by an RP-HPLC technique. Methanol solutions of the investigated hydrazone compounds (0.5 mg/mL) were injected into an Agilent 1260 infinity HPLC system (Agilent Technologies Italia, Milan), equipped with a diode array detector (DAD), and a Phenomenex Kinetex C18 column (150 × 4.6 mm, 5 μ, Phenomenex Italy s.r.l., Castel Maggiore, BO, Italy), and eluted at different mobile phase compositions (0.05 increments of MeOH volume fraction in 10 mM ammonium formate buffer at pH 4.5, ranging ϕ between 0.85 and 0.30). All RP-HPLC measurements were carried out at 25 ± 1 °C, at a flow rate of 1.0 mL/min, and at 254 nm wavelength.
The logarithm of capacity factors (log k′ = log (tR − t0)/t0) of each compound at different mobile phase compositions have been calculated; tR represents the retention time of the solute and t0 is the column dead time, measured as the elution time of a KNO3 solution in MeOH. For each compound, the log k′ values increased linearly with decreasing MeOH volume fraction. Logarithms of capacity factors extrapolated to the 100% aqueous mobile phase (log k′w) were calculated from the linear regressions on at least five data points (r^2 > 0.975).

[3] = Aβ40 aggregation inhibition, read-out: pIC50, Aβ antiaggregating potency (converted)
[4] = 2% HFIP, PBS, 2 h at 25 °C, mean ± SEM of three independent experiments

Compound	log k'w [2]	inhibition at 100 µM [1, 4] [%]	other results
COc1ccc2c(c1)/C(=N/Nc1cccc3ccccc13)C(=O)N2 [Compound 8, (Z)-5-Methoxy-3-(2-(naphthalen-1-yl)hydrazono)indolin-2-one]	5.15		IC50 [1, 3]: 28.2 µM
COc1ccc2c(c1)/C(=N/Nc1ccc(C(C)C)cc1)C(=O)N2CCCc1ccccc1 [Compound 34, (Z)-3-(2-(4-Isopropylphenyl)hydrazono)-5-methoxy-1-(3-phenylpropyl)indolin-2-one]	7.87		IC50 [1]: 0.83 ± 0.2 µM
CCCCc1ccc2c(c1)C(=NNc1ccc(C(C)C)cc1)C(=O)N2 [Compound 36, 5-Butyl-3-(2-(4-isopropylphenyl)hydrazono)indolin-2-one]		55 ± 1	
COc1ccc2c(c1)/C(=N/Nc1ccc(C(F)(F)F)cc1)C(=O)N2 [Compound 5, (Z)-5-Methoxy-3-(2-(4-(trifluoromethyl)phenyl)hydrazono)indolin-2-one]		57	
CC(C)c1ccc(NN=C2C(=O)Nc3ccc(S(=O)(=O)O)cc32)cc1 [Compound 38, Sodium 3-(2-(4-isopropylphenyl)hydrazono)-2-oxoindolin-5-sulfonate]		35 ± 4	
COc1ccc2c(c1)/C(=N/Nc1nc(-c3cccc(O)c3)cs1)C(=O)N2 [Compound 16, (Z)-3-(2-(4-(3-Hydroxyphenyl)thiazol-2-yl)hydrazono)-5-methoxyindolin-2-one]	4.58		IC50 [1, 3]: 15.8 µM
CC(C)c1ccc(NN=C2C(=O)Nc3c(Br)cccc32)cc1 [Compound 37, 7-Bromo-3-(2-(4-isopropylphenyl)hydrazono)indolin-2-one]		< 5	Aβ aggregation inhibition, result in words [1]: complete loss of activity
COc1ccc2c(c1)/C(=N/Nc1nc(-c3ccccc3)cs1)C(=O)N2 [Compound 15]	5.10		IC50 [1, 3]: 1.2 µM
COc1ccc2c(c1)/C(=N/Nc1nc(-c3cccc(Br)c3)cs1)C(=O)N2 [Compound 18, (Z)-3-(2-(4-(3-Bromophenyl)thiazol-2-yl)hydrazono)-5-methoxyindolin-2-one]	5.67		IC50 [1, 3]: 39.8 µM
CC(C)c1ccc(N/N=C2\C(=O)Nc3cc4c(cc32)OCO4)cc1 [Compound 39, (Z)-7-(2-(4-isopropylphenyl)hydrazono)-5H-[1,3]dioxolo[4,5-f]indol-6(7H)-one]		70 ± 4	
COc1ccc2c(c1)/C(=N/Nc1cccc3cccnc13)C(=O)N2 [Compound 10, (Z)-5-Methoxy-3-(2-(quinolin-8-yl)hydrazono)indolin-2-one]		58	
COc1ccc2c(c1)/C(=N/Nc1ccc(C(C)C)cc1)C(=O)N2CCc1ccccc1 [Compound 33, (Z)-3-(2-(4-Isopropylphenyl)hydrazono)-5-methoxy-1-phenethylindolin-2-one]	7.24		IC50 [1]: 0.61 ± 0.03 µM
COc1ccc2c(c1)/C(=N/Nc1nc(C)c(C)s1)C(=O)N2 [Compound 14, (Z)-3-(2-(4,5-Dimethylthiazol-2-yl)hydrazono)-5-methoxyindolin-2-one]		43	Aβ aggregation inhibition, result in words [1]: very weak inhibitor
COc1ccc2[nH]cc(/C=N/Nc3ccc(C(C)C)cc3)c2c1 [Compound 19]	6.42		IC50 [1]: 41 ± 3 µM; fold less potent than compound 1 (Aβ40 aggregation) [1]: 100 fold
COc1ccc2c(c1)/C(=N/Nc1cc(C(F)(F)F)cc(C(F)(F)F)c1)C(=O)N2 [Compound 6, (Z)-3-(2-(3,5-bis(trifluoromethyl)phenyl)hydrazono)-5-methoxyindolin-2-one]	6.29		IC50 [1]: 9.9 ± 0.8 µM; fold less potent than compound 1 (Aβ40 aggregation) [1]: 25 fold
COc1ccc2c(c1)/C(=N\N=C/c1ccc(C(C)C)cc1)C(=O)N2 [Compound 21, (Z)-3-((E)-(4-Isopropylbenzylidene)hydrazono)-5-methoxyindolin-2-one]	4.82		IC50 ([1]; Aβ40, ThT fluorescence, 2% HFIP, PBS, 2 h at 25 °C, mean ± SEM of three independent experiments, read-out: IC50 (µM), Aβ antiaggregating activity): 6.7 ± 0.2 µM
COc1cccc(-c2csc(N/N=C3\C(=O)Nc4ccc(OC)cc43)n2)c1 [Compound 17, (Z)-5-Methoxy-3-(2-(4-(3-methoxyphenyl)thiazol-2-yl)hydrazono)indolin-2-one]	5.29		IC50 [1, 3]: 33.9 µM
COc1ccc2c(c1)/C(=N/Nc1ccc(C#N)cc1)C(=O)N2 [Compound 4, (Z)-4-(2-(5-Methoxy-2-oxoindolin-3-ylidene)hydrazinyl)benzonitrile]		16	
COc1ccc2c(c1)/C(=N/Nc1ccnc3cc(Cl)ccc13)C(=O)N2 [Compound 11, (Z)-3-(2-(7-Chloroquinolin-4-yl)hydrazono)-5-methoxy-indolin-2-one]		14	Aβ aggregation inhibition, result in words [1]: very weak inhibitor
COc1ccc2c(c1)/C(=N\N=C/c1cccc(Cl)c1)C(=O)N2 [Compound 22, (Z)-3-((E)-(3-chlorobenzylidene)hydrazono)-5-methoxyindolin-2-one]	4.21		IC50 [1, 3]: 11 µM
COc1ccc2c(c1)C(=NNC(=O)c1cccc(Cl)c1)C(=O)N2 [Compound 23, 3-Chloro-N’-(5-methoxy-2-oxoindolin-3-ylidene)benzohydrazide]		31	Aβ aggregation inhibition, result in words [1]: sharp drop of activity
COc1ccc2c(c1)/C(=N/Nc1nc(CCl)cs1)C(=O)N2 [Compound 13, (Z)-3-(2-(4-(Chloromethyl)thiazol-2-yl)hydrazono)-5-methoxyindolin-2-one]	3.95		IC50 [1, 3]: 12.9 µM
COc1ccc2c(c1)/C(=N/Nc1ccc(C(C)C)cc1)C(=O)N2Cc1ccccc1 [Compound 32, (Z)-1-Benzyl-3-(2-(4-isopropylphenyl)hydrazono)-5-methoxyindolin-2-one]	7.44		IC50 [1]: 0.53 ± 0.1 µM
COc1ccc2c(c1)/C(=N/Nc1ccc(C(C)C)cc1)C(=O)N2C [Compound 26, (Z)-3-(2-(4-Isopropylphenyl)hydrazono)-5-methoxy-1-methylindolin-2-one]	5.96		IC50 [1]: 0.81 ± 0.11 µM
COc1ccc2c(c1)/C(=N/Nc1ccccn1)C(=O)N2 [Compound 7, (Z)-5-Methoxy-3-(2-(pyridin-2-yl)hydrazono)indolin-2-one]	2.34		IC50 [1]: 90 ± 5 µM
COc1ccc2c(c1)/C(=N/N(C)c1ccc(C(C)C)cc1)C(=O)N2C [Compound 24, (Z)-3-(2-(4-Isopropylphenyl)-2-methylhydrazono)-5-methoxy-1-methylindolin-2-one]	4.23		IC50 [1, 3]: 11 µM; fold decrease in inhibition potency compared with 26 ([1]; vs non-methylated compound 26): more than 10 fold
COc1ccc2c(c1)/C(=N/Nc1ccc3ccccc3n1)C(=O)N2 [Compound 9, (Z)-5-Methoxy-3-(2-(quinolin-2-yl)hydrazono)indolin-2-one]		67	
